According to publication PMC4043709 (Drug Design, Development and Therapy, 2014):

Target: T1, ABCG2 (Homo sapiens, UniProt Q9UNQ0)
T1 sequence (Q9UNQ0 1-655): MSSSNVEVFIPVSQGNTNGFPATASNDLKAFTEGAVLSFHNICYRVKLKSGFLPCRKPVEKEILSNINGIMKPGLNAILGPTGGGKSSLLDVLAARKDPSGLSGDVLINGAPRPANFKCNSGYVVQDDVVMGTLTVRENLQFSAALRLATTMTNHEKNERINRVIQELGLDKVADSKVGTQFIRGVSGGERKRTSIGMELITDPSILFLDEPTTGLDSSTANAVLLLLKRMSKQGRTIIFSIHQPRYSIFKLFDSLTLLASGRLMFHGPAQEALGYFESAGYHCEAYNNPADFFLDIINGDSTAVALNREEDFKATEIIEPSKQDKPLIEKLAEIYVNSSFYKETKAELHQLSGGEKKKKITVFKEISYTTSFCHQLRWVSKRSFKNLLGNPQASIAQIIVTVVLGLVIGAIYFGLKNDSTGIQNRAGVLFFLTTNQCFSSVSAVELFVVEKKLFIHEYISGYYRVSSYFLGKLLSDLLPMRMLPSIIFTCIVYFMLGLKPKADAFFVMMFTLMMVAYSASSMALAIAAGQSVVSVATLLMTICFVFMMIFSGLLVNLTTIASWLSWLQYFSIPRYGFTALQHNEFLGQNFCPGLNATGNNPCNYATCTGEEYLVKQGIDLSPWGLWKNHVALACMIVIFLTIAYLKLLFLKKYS
Assay: ABCG2-mediated mitoxantrone efflux
Type: cell-based
Conditions: 6 versus 3; 10 versus 5

Row | SMILES | fold decrease of inhibition caused by hydroxyl group at 4′ position [fold]
1 | COc1cc(C(=O)/C=C/c2ccc3nccnc3c2)ccc1O [Compound 6, (2E)-1-(3′-methoxy,4′-hydroxy-phenyl)-3-(quinoxalin-6-yl)-2-propen-1-one] | 8
2 | COc1cc(C(=O)/C=C/c2ccc3nccnc3c2)cc(OC)c1O [Compound 10, (2E)-1-(3′,5′-dimethoxy,4′-hydroxy-phenyl)-3-(quinoxalin-6-yl)-2-propen-1-one] | 5
